According to ChEMBL document CHEMBL1201862, “PubChem BioAssay data set” (2004):
“And” between values parts separate entries of the source, which are not always exact repeats. Equal entries are not always repeated.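 Values below derive from 48-hour exposures of cells grown in 96-well plates, with endpoints linearly interpolated between the two concentrations bracketing the appropriate inhibition level. GI50 is the concentration that inhibits growth by half.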 The source made the active and inactive calls. Rule as the data show it: active = GI50 up to about 1.1 µM and inactive = higher.

How the values were obtained:
Test in all cases: growth of human tumour cells (NCI), 48 h
MOLT-4 = tested on: MOLT-4
CCRF-CEM = tested on: CCRF-CEM
M14 = tested on: M14
KM-20L2 = tested on: KM-20L2
NCI-H226 = tested on: NCI-H226
RXF 393 = tested on: RXF 393
SF-539 = tested on: SF-539
LXFL 529 = tested on: LXFL 529
NCI-H23 = tested on: NCI-H23
NCI-H460 = tested on: NCI-H460
DMS-273 = tested on: DMS-273
XF498 = tested on: XF498
COLO 205 = tested on: COLO 205
OVCAR-3 = tested on: OVCAR-3
TK-10 = tested on: TK-10
SNB-78 = tested on: SNB-78
786-0 = tested on: 786-0
DLD-1 = tested on: DLD-1
NCI-H522 = tested on: NCI-H522
U-251 = tested on: U-251
HT-29 = tested on: HT-29
LOX IMVI = tested on: LOX IMVI
HCC 2998 = tested on: HCC 2998
SNB-75 = tested on: SNB-75
K562 = tested on: K562
SW-620 = tested on: SW-620
M19-MEL = tested on: M19-MEL
SN12C = tested on: SN12C
RPMI-8226 = tested on: RPMI-8226
SK-MEL-5 = tested on: SK-MEL-5
UACC-62 = tested on: UACC-62
EKVX = tested on: EKVX
HL-60 = tested on: HL-60
SF-268 = tested on: SF-268
OVCAR-8 = tested on: OVCAR-8
SNB-19 = tested on: SNB-19
HOP-18 = tested on: HOP-18
HCT-116 = tested on: HCT-116
KM12 = tested on: KM12
SK-OV-3 = tested on: SK-OV-3
DMS-114 = tested on: DMS-114
IGROV-1 = tested on: IGROV-1
SF-295 = tested on: SF-295
OVCAR-4 = tested on: OVCAR-4
HOP-62 = tested on: HOP-62
SK-MEL-28 = tested on: SK-MEL-28
A549 = tested on: A549
UACC-257 = tested on: UACC-257
OVCAR-5 = tested on: OVCAR-5
UO-31 = tested on: UO-31
HOP-92 = tested on: HOP-92
ACHN = tested on: ACHN
HCT-15 = tested on: HCT-15
CAKI-1 = tested on: CAKI-1
Malme-3M = tested on: Malme-3M
A498 = tested on: A498
SK-MEL-2 = tested on: SK-MEL-2
MDA-N = tested on: MDA-N
T47D = tested on: T47D
DU-145 = tested on: DU-145

O=[PH](O)c1cc2c3ccccc3ccc2c2ccccc12
GI50 (MOLT-4): > 100 µM (inactive) | GI50 (CCRF-CEM): > 100 µM (inactive) | GI50 (M14): > 100 µM (inactive) | GI50 (KM-20L2): > 100 µM (inactive) | GI50 (NCI-H226): 13.9 µM (inactive) | GI50 (RXF 393): > 100 µM (inactive) | GI50 (SF-539): > 100 µM (inactive) | GI50 (LXFL 529): > 100 µM (inactive) | GI50 (NCI-H23): > 100 µM (inactive) | GI50 (NCI-H460): > 100 µM (inactive) | GI50 (DMS-273): > 100 µM (inactive) | GI50 (XF498): 67.3 µM (inactive) | GI50 (COLO 205): > 100 µM (inactive) | GI50 (OVCAR-3): > 100 µM (inactive) | GI50 (TK-10): > 100 µM (inactive) | GI50 (SNB-78): > 100 µM (inactive) | GI50 (786-0): > 100 µM (inactive) | GI50 (DLD-1): > 100 µM (inactive) | GI50 (NCI-H522): > 100 µM (inactive) | GI50 (U-251): > 100 µM (inactive) | GI50 (HT-29): > 100 µM (inactive) | GI50 (LOX IMVI): > 100 µM (inactive) | GI50 (HCC 2998): > 100 µM (inactive) | GI50 (SNB-75): > 100 µM (inactive) | GI50 (K562): > 100 µM (inactive) | GI50 (SW-620): > 100 µM (inactive) | GI50 (M19-MEL): > 100 µM (inactive) | GI50 (SN12C): > 100 µM (inactive) | GI50 (RPMI-8226): > 100 µM (inactive) | GI50 (SK-MEL-5): > 100 µM (inactive) | GI50 (UACC-62): > 100 µM (inactive) | GI50 (EKVX): > 100 µM (inactive) | GI50 (HL-60): > 100 µM (inactive) | GI50 (SF-268): > 100 µM (inactive) | GI50 (OVCAR-8): > 100 µM (inactive) | GI50 (SNB-19): > 100 µM (inactive) | GI50 (HOP-18): > 100 µM (inactive) | GI50 (HCT-116): > 100 µM (inactive) | GI50 (KM12): > 100 µM (inactive) | GI50 (SK-OV-3): > 100 µM (inactive) | GI50 (DMS-114): > 100 µM (inactive) | GI50 (IGROV-1): > 100 µM (inactive) | GI50 (SF-295): > 100 µM (inactive) | GI50 (OVCAR-4): > 100 µM (inactive) | GI50 (HOP-62): > 100 µM (inactive) | GI50 (SK-MEL-28): > 100 µM (inactive) | GI50 (A549): > 100 µM (inactive)

CC1=C(C(=O)CC(=O)C(=O)Nc2ccc(C)c(C)c2)Sc2ccccc2N1
GI50 (M14): > 100 µM (inactive) | GI50 (KM-20L2): > 100 µM (inactive) | GI50 (NCI-H226): > 100 µM (inactive) | GI50 (UACC-257): > 100 µM (inactive) | GI50 (RXF 393): > 100 µM (inactive) | GI50 (OVCAR-5): > 100 µM (inactive) | GI50 (UO-31): > 100 µM (inactive) | GI50 (SF-539): > 100 µM (inactive) | GI50 (LXFL 529): > 100 µM (inactive) | GI50 (NCI-H23): > 100 µM (inactive) | GI50 (HOP-92): > 100 µM (inactive) | GI50 (NCI-H460): > 100 µM (inactive) | GI50 (DMS-273): > 100 µM (inactive) | GI50 (XF498): > 100 µM (inactive) | GI50 (COLO 205): > 100 µM (inactive) | GI50 (OVCAR-3): > 100 µM (inactive) | GI50 (TK-10): > 100 µM (inactive) | GI50 (SNB-78): > 100 µM (inactive) | GI50 (786-0): > 100 µM (inactive) | GI50 (DLD-1): > 100 µM (inactive) | GI50 (ACHN): > 100 µM (inactive) | GI50 (NCI-H522): > 100 µM (inactive) | GI50 (U-251): > 100 µM (inactive) | GI50 (HCT-15): > 100 µM | GI50 (HT-29): > 100 µM (inactive) | GI50 (LOX IMVI): > 100 µM (inactive) | GI50 (HCC 2998): > 100 µM (inactive) | GI50 (CAKI-1): > 100 µM (inactive) | GI50 (SNB-75): > 100 µM (inactive) | GI50 (SW-620): > 100 µM (inactive) | GI50 (M19-MEL): > 100 µM (inactive) | GI50 (SN12C): > 100 µM (inactive) | GI50 (RPMI-8226): > 100 µM (inactive) | GI50 (SK-MEL-5): > 100 µM (inactive) | GI50 (UACC-62): > 100 µM (inactive) | GI50 (EKVX): > 100 µM (inactive) | GI50 (SF-268): > 100 µM (inactive) | GI50 (OVCAR-8): > 100 µM (inactive) | GI50 (SNB-19): > 100 µM (inactive) | GI50 (HOP-18): > 100 µM (inactive) | GI50 (Malme-3M): > 100 µM (inactive) | GI50 (HCT-116): > 100 µM (inactive) | GI50 (A498): > 100 µM (inactive) | GI50 (KM12): > 100 µM (inactive) | GI50 (SK-OV-3): > 100 µM (inactive) | GI50 (DMS-114): > 100 µM (inactive) | GI50 (IGROV-1): > 100 µM (inactive) | GI50 (SF-295): > 100 µM (inactive) | GI50 (OVCAR-4): > 100 µM (inactive) | GI50 (HOP-62): > 100 µM (inactive) | GI50 (SK-MEL-28): > 100 µM (inactive) | GI50 (A549): > 100 µM (inactive)

CN(C)CC1CCCC(CN(C)C)C1=O (configuration not stated)
GI50 (MOLT-4): 241 nM (active) and 450 nM (active) | GI50 (KM-20L2): 5.02 µM (inactive) | GI50 (SK-MEL-2): 8.73 µM (inactive) and 17.2 µM (inactive) | GI50 (MDA-N): 11 µM (inactive) and 12.1 µM (inactive) | GI50 (UACC-257): 2.34 µM (inactive) and 2.11 µM (inactive) | GI50 (RXF 393): 1.73 µM (inactive) and 1.26 µM (inactive) | GI50 (OVCAR-5): 18.2 µM (inactive) and 18.3 µM (inactive) | GI50 (T47D): 1.69 µM (inactive) and 1.24 µM (inactive) | GI50 (LXFL 529): 0.386 µM (active) | GI50 (HOP-92): 1.91 µM (inactive) and 968 nM (active) | GI50 (NCI-H460): 19.8 µM (inactive) and 17.5 µM (inactive) | GI50 (DMS-273): 10.9 µM (inactive) | GI50 (XF498): 2.09 µM (inactive) | GI50 (COLO 205): 1.67 µM (inactive) and 3.33 µM (inactive) | GI50 (OVCAR-3): 2.58 µM (inactive) and 1.95 µM (inactive) | GI50 (SNB-78): 3.5 µM (inactive) | GI50 (786-0): 2.32 µM (inactive) and 1.77 µM (inactive) | GI50 (DLD-1): 1.12 µM (active) | GI50 (ACHN): 1.33 µM (inactive) and 1.87 µM (inactive) | GI50 (U-251): 10.7 µM (inactive) and 17.9 µM (inactive) | GI50 (HCC 2998): 13.9 µM (inactive) and 19.3 µM (inactive) | GI50 (SNB-75): 16.4 µM (inactive) and 13.9 µM (inactive) | GI50 (SW-620): 196 nM (active) and 271 nM (active) | GI50 (M19-MEL): 3.65 µM (inactive) | GI50 (SK-MEL-5): 8.38 µM (inactive) and 16 µM (inactive) | GI50 (EKVX): 5.74 µM (inactive) and 6.61 µM (inactive) | GI50 (OVCAR-8): 2.71 µM (inactive) and 2.98 µM (inactive) | GI50 (SNB-19): > 45.6 µM (inactive) and 47 µM (inactive) | GI50 (HOP-18): 1.83 µM (inactive) | GI50 (DMS-114): 1.48 µM (inactive) | GI50 (IGROV-1): 19.3 µM (inactive) and 18.1 µM (inactive) | GI50 (DU-145): > 10 µM (inactive) and 15.6 µM (inactive) | GI50 (A549): 24.9 µM (inactive) and 27.2 µM (inactive)
